Experimental data from article doi:10.1101/2025.03.14.643404, “A Bivalent Molecular Glue Linking Lysine Acetyltransferases to Oncogene-induced Cell Death” (bioRxiv, 2025).

Legend:
SUDHL5 cells [1] = test: Cell viability, 72 h compound treatment (PrestoBlue), SUDHL5; assay type: cell-based, human; conditions: for effect of inhibitor co-treatment on TCIP3 cell killing: SUDHL5, constant 1 nM TCIP3 plus titrated inhibitor, 72 h
Description: Thirty thousand cells were seeded in 100 μl of media per well of a 96-well plate and treated with drug for the indicated times and doses. A resazurin-based indicator of cell health (PrestoBlue; P50200, Thermo Fisher) was added for 1.5 h at 37°C, at which point the fluorescence ratio at 560/590 nm was recorded (Tecan Spark). The background fluorescence was subtracted, and the signal was normalized to DMSO-treated cells. IC50 measurements on cell lines were calculated using at least three biological replicates (separate cell passages). Fit of dose–response curves to data and statistical analysis was performed using GraphPad PRISM using the four-parameter log(inhibitor) vs response function.

c-MYC mRNA = test: RT-qPCR of c-MYC transcripts in SUDHL5; assay type: cell-based, human; conditions: for effect of competitor co-treatment on c-MYC mRNA repression by TCIP3: SUDHL5, 10 nM TCIP3 plus 500 nM inhibitor, 1 h; for c-MYC repression compared with TCIP3: SUDHL5, matched concentrations, transcript or proteomic level
Description: Cells were plated at 1M/mL and harvested in TRIsure (Bioline 38033). RNA was extracted using Direct-zol RNA MicroPrep columns (Zymo R2062) treated with DNAseI. cDNA was prepared (Meridian Bioscience BIO-65054) and used for qPCR (Meridian Bioscience BIO-94050) using an AppliedBiosystems QuantStudio 6Pro. Primer sequences were the following:
• c-MYC fwd: […]; • c-MYC rev: […]; • GAPDH fwd: […]; • GAPDH rev: […].

p300^Q1083R = p300^Q1083R (Homo sapiens, UniProt P41182+Q09472, Q1082R); test: TR-FRET binary displacement assay, p300 Q1083R bromodomain; assay type: binding; conditions: α = Kd binary/Kd ternary
Description: (§1) Drugs were digitally dispensed (Tecan D300e) into protein-containing wells, and the plate was allowed to incubate in the dark for 1 hour at room temperature. Emission at 490 nm (terbium) and 520 nm (FITC) was measured on a PHERAstar FS plate reader (BMG Labtech) upon excitation with 337 nm. The ratio of signal at 520 nm to 490 nm was calculated and normalized to DMSO-treated protein.

p300^Q1083A = p300^Q1083A (Homo sapiens, UniProt P41182+Q09472, Q1082A); test: TR-FRET binary displacement assay, p300 Q1083A bromodomain; assay type: binding; conditions: α = Kd binary/Kd ternary
Description: as §1

[2] = tested on: BCL6-repressed GFP reporter; test: BCL6 reporter assay (BCL6-repressed GFP) in K422 cells; assay type: cell-based, human; conditions: 24 h
Description: KARPAS422 cells were lentivirally transduced with a construct containing the reporter. Description of the reporter construct has been published previously. After selection, cells were plated and treated with indicated amount of compound for 24 hours. Cells were washed in 2.5% FBS/PBS, stained with 1:250 v/v of 7-AAD (BD 559925) to distinguish live from dead cells, and harvested for flow cytometry on a BD Accuri. Given the polyclonal population after transduction, the area under the curve of the histogram representing FITC signal across all live cells was calculated as an integrative measure of total GFP signal. A GFP-positive gate two standard deviations from the mean was drawn from non-transduced cells and the area past a constant threshold was calculated and normalized to the signal from cells treated with DMSO.

SUDHL5 cells [3] = test: Global proteome profiling in SUDHL5, whole proteome; assay type: cell-based, human; conditions: SUDHL5, 10 nM, 6 and 24 hours
Description: SUDHL5 cells (6M cells in 6 mL RPMI-1640 media supplemented with 10% FBS and 1x pen-strep) were treated with 0.1% DMSO, 10 nM TCIP3, 10 nM Neg1, 10 nM Neg2, or 250 nM dCBP1 (1000x stocks in DMSO for final 0.1% DMSO concentration) in 3 biologically independent replicates. The cells were washed twice with TBS (50 mM Tris, pH 8.5, and 150 mM NaCl) and then stored at −80 °C until use.
Lysis was performed by first thermally denaturing the samples in residual wash buffer for 5 min at 95 °C. Fresh Lysis Buffer (8 M urea, 150 mM NaCl, and 100 mM HEPES, pH 8.0, in MS-grade water) was then added, and the lysates were homogenized using needle ultrasonication and then normalized to 30 μg of 2 mg/mL by diluting with Lysis Buffer via a Bradford protein concentration assay (Bio-Rad 5000006) in technical duplicates. […]
Samples were then desalted using SOLAμ SPE HRP Peptide Desalting columns (Thermo 60209–001) with a Positive Pressure Manifold and all MS-grade reagents. […] The samples were then reconstituted in 0.1% FA in water and then analyzed by LC-MS/MS (see below).
The reconstituted desalted peptides were then analyzed using a nanoElute 2 UHPLC (Bruker Daltonics, Bremen, Germany) coupled to a timsTOF HT (Bruker Daltonics, Bremen, Germany) via a CaptiveSpray nano-electrospray source. […]

BCL6^BTB = target: T1, BCL6^BTB (Homo sapiens, UniProt P41182); test: BCL6BTB nanoBRET probe displacement in HEK293T; assay type: cell-based; conditions: compared with TCIP3
T1 construct: human BCL6 (Uniprot: P41182; aa1–129); expressed in transfected cells; host or cells: HEK293T
Description: The construct for NanoLuciferase(NanoLuc)-tagged BCL6^BTB was created as follows in a lentiviral construct: an N-terminal NanoLuc (subcloned from pNLSF-1, Promega N1351) was fused to the BTB domain of human BCL6 (Uniprot: P41182; aa1–129) with an internal GSG linker followed by a V5 tag. HEK293T cells were plated at a density of 6×10^5 cells/mL in 2 mL of DMEM/well in a tissue culture treated 6-well plate and were allowed to incubate overnight at 37 °C. The next day, each well of cells was transfected with 2 ug of NanoLuc-BCL6^BTB (renamed pNSG218) using Lipofectamine 2000. The transfected cells were allowed to incubate overnight at 37 °C. The following day, the transfected cells were trypsizined, washed with PBS, counted with Trypan Blue, and brought to a final concentration of 1.25×10^5 cells/mL in Fluorobrite DMEM (Gibco A1896701) supplemented with 10% FBS. 1 uM TNL-15 probe was added to the cells before plating 5000 cells per well in a volume of 40 uL per well in a 384-well plate. […] Data was then obtained using a PheraStar FS plate reader (BMG Labtech) measuring luminescence with 520-BP and 450-BP filters. […]
For all NanoBRET assays, a dose-response curve with 3 technical replicates was constructed for each compound, and corrected BRET ratios were calculated according to manufacturer assay protocol (Promega TM439). […]

Compound | effect of inhibitor co-treatment on TCIP3 cell killing (SUDHL5 cells [1]) | effect of competitor co-treatment on c-MYC mRNA repression by TCIP3 (c-MYC mRNA) | c-MYC repression compared with TCIP3 (c-MYC mRNA) | cooperativity α (p300^Q1083R) | cooperativity α (p300^Q1083A) | activation of GFP expression [2] | IC50 (SUDHL5 cells [1]; Homo sapiens, SU-DHL-5, SUDHL5, 72 h, read-out: IC50 cell viability / antiproliferation) [nM] | proteome changes relative to DMSO (SUDHL5 cells [3]) | cellular binding to BCL6 BTB (BCL6^BTB)
CNC(=O)COc1cc2cc(Nc3nc(N4CCC(C(=O)N(C)C)CC4)ncc3Cl)cc(OC)c2n(C)c1=O [BI-3812] | buffered the effects of TCIP3 on cell viability | almost completely restored c-MYC levels to baseline | Neither GNE-781, dCBP-1, NEG1, NEG2, nor the BCL6^BTB inhibitor BI-3812 produced comparable c-MYC repression |  |  |  |  |  | 
CNC(=O)N1CCc2c(c(N3CCCc4cc(-c5cnn(C)c5)c(C(F)F)cc43)nn2C2CCOCC2)C1 [GNE-781] | buffered the effects of TCIP3 on cell viability | restored c-MYC levels to those observed with GNE-781 treatment alone | Neither GNE-781, dCBP-1, NEG1, NEG2, nor the BCL6^BTB inhibitor BI-3812 produced comparable c-MYC repression | ~ 1.0 | ~ 0.88 |  |  |  | 
CNC(=O)COc1cc2cc(Nc3nc(N4CCC(C(=O)N5CCN(CCC(=O)N6CCC(n7nc(N8CCCc9cc(-c%10cnn(C)c%10)c(C(F)F)cc98)c8c7CCN(C(=O)c7ccccc7)C8)CC6)CC5)CC4)ncc3Cl)cc(OC)c2n(C)c1=O [NEG2] |  |  | Neither GNE-781, dCBP-1, NEG1, NEG2, nor the BCL6^BTB inhibitor BI-3812 produced comparable c-MYC repression |  |  | Neither NEG1 nor NEG2 activated GFP expression | 2100 | no significant changes relative to DMSO | potent binders
